Assay results taken from patent US20150011508A1, “COMPOUNDS AND COMPOSITIONS AS C-KIT KINASE INHIBITORS” (priority 2011, published 2015).

Biological target: T1, c-kit (Homo sapiens, UniProt P10721)
T1 construct: human Mo7e cells which endogenously express c-kit; endogenous in cells; host or cells: human Mo7e cells (SCF-dependent promegakaryocytic leukemia line)
Test: Mo7e cell proliferation assay (SCF dependent proliferation)
Type: cell-based
Conditions: Table 1; human Mo7e cells stimulated with human recombinant SCF, 48 h, CellTiter Glo; 1% FBS (footnote)
Description: Compounds of Formula (I) and Formula (II) provided herein were assayed to measure their capacity to inhibit c-kit and PDGFR kinases using the appropriate assay described below: c-Kit inhibition was evaluated using the Mo7e cell proliferation assay, and PDGFR inhibition was evaluated using the Rat A10 cell proliferation assay and the Human TGHA-VSMC cell proliferation assay.
The compounds of Table 1 and Table 2 were tested for inhibition of SCF dependent proliferation using human Mo7e cells which endogenously express c-kit in a 384 well format. […] After 48 hours of incubation at 37° C., cell viability was measured by adding 25 uL of CellTiter Glo (Promega) to the cells and the luminescence was measured by a CLIPR CCD camera (Molecular Devices).
The IC50 value is given as that concentration of the test compound in question that provoke a response halfway between the baseline and maximum responses.

T1 sequence (P10721 26-976): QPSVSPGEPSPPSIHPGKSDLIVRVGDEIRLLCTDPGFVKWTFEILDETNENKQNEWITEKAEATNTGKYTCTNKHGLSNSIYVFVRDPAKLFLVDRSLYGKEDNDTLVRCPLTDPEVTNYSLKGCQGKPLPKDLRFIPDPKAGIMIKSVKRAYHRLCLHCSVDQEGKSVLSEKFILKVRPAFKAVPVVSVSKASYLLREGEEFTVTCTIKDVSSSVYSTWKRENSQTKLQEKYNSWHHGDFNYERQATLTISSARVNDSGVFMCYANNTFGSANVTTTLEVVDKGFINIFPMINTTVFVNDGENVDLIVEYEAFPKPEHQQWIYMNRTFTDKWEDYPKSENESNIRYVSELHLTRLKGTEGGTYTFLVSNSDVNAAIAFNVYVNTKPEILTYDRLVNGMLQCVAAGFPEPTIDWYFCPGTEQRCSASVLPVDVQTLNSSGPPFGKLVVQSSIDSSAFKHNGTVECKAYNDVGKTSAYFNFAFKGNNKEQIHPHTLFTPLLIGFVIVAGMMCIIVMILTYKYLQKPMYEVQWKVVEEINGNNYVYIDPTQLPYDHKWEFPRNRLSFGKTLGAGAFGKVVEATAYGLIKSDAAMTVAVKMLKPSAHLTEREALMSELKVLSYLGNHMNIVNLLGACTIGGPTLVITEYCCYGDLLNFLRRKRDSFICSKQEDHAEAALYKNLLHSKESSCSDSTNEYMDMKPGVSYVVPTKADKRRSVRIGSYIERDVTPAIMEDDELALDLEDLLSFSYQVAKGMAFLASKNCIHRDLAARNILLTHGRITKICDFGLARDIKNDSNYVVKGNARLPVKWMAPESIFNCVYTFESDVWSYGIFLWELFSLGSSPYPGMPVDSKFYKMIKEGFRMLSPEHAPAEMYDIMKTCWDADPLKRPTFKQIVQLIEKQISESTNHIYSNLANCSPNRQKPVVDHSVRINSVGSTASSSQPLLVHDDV

SMILES | IC50
Cc1ccc(-c2noc(CCC(C)(C)O)n2)cc1NC(=O)c1cnc2cc(N3CCOC3=O)ccn12 [F61] | 272 nM
Cc1nc(-c2ccc(C)c(NC(=O)c3cnc4ccc(-c5c(C)n[nH]c5C)cn34)c2)no1 [F104, 6-(3,5-dimethyl-1H-pyrazol-4-yl)-N-(2-methyl-5-(5-methyl-1,2,4-oxadiazol-3-yl)phenyl)imidazo[1,2-a]pyridine-3-carboxamide] | 9 nM
[2H]c1c([2H])c([2H])n2c(C(=O)Nc3cc(-c4noc(COCCOC)n4)ccc3C)cnc2c1[2H] [F53, N-(5-(5-((2-methoxyethoxy)methyl)-1,2,4-oxadiazol-3-yl)-2-methylphenyl)5,6,7,8,deutero-imidazo[1,2-a]pyridine-3-carboxamide] | 61 nM
CCN(Cc1nc(-c2ccc(C)c(NC(=O)c3cnc4ccccn34)c2)no1)C(=O)OC(C)(C)C [F21] | 55 nM
COCCCc1nc(-c2ccc(C)c(NC(=O)c3cnc4ccccn34)c2)no1 [F3] | 44 nM
Cc1ccc(-c2noc(CN(C)C(=O)OC(C)(C)C)n2)cc1NC(=O)c1cnc2ccccn12 [F19, tert-butyl (3-(3-(imidazo[1,2-a]pyridine-3-carboxamido)-4-methylphenyl)-1,2,4-oxadiazol-5-yl)methyl(methyl)carbamate] | 57 nM
Cc1ccc(-c2noc(CC(O)(C(F)(F)F)C(F)(F)F)n2)cc1NC(=O)c1cnc2ccccn12 [F16] | 22 nM
Cc1nc(-c2ccc(C)c(NC(=O)c3cnc4ccc(-c5nc(C)c(C(N)=O)s5)cn34)c2)no1 [F259, 4-methyl-2-(3-((2-methyl-5-(5-methyl-1,2,4-oxadiazol-3-yl)phenyl)carbamoyl)imidazo[1,2-a]pyridin-6-yl)thiazole-5-carboxamide] | 89 nM
Cc1ccn2c(C(=O)Nc3cc(-c4noc(C[C@@H](O)C(F)(F)F)n4)ccc3C)cnc2c1 [F99] | 45 nM
Cc1ccc(-c2noc(C(CO)(CO)NS(C)(=O)=O)n2)cc1NC(=O)c1cnc2ccccn12 [F17, N-(5-(5-(1,3-dihydroxy-2-(methylsulfonamido)propan-2-yl)-1,2,4-oxadiazol-3-yl)-2-methylphenyl)imidazo[1,2-a]pyridine-3-carboxamide] | 67 nM

Same assay, conditions: Table 2; human Mo7e cells stimulated with human recombinant SCF, 48 h, CellTiter Glo; 1% FBS (footnote)

SMILES | IC50
Cc1ccc(-c2noc(CC(C)(C)O)n2)cc1NC(=O)c1cnc2ccccn12 [F138] | 233 nM
COC(=O)N[C@H](C)c1nc(-c2ccc(C)c(NC(=O)c3cnc4ccccn34)c2)no1 [F137] | 193 nM
CC(=O)NCCCc1nc(-c2ccc(C)c(NC(=O)c3cnc4ccccn34)c2)no1 [F222] | 1320 nM
COCCCN(Cc1nc(-c2ccc(C)c(NC(=O)c3cnc4ccccn34)c2)no1)C(=O)C(F)(F)F [F151] | 134 nM
Cc1ccn2c(C(=O)Nc3cc(-c4noc(CC[C@@](C)(OC(=O)[C@@H](N)C(C)C)C(F)(F)F)n4)ccc3C)cnc2c1 [F251] | 142 nM
Cc1ccc(-c2noc(C[C@@H](C)N)n2)cc1NC(=O)c1cnc2ccccn12 [F219] | 1190 nM
Cc1nc(-c2ccc(C)c(NC(=O)c3cnc4ccc(-c5cncnc5)cn34)c2)no1 [F206] | 196 nM
Cc1ccc(-c2noc(CCNS(C)(=O)=O)n2)cc1NC(=O)c1cnc2ccccn12 [F114] | 409 nM
Cc1ccc(-c2noc(C(C)(C)N)n2)cc1NC(=O)c1cnc2ccccn12 [F218] | 1060 nM
Cc1ccc(-c2noc(CNS(C)(=O)=O)n2)cc1NC(=O)c1cnc2ccccn12 [F129] | 124 nM
Cc1ccc(-c2noc(CNC(=O)OCCF)n2)cc1NC(=O)c1cnc2ccccn12 [F157] | 155 nM
COC(=O)NCc1nc(-c2ccc(C)c(NC(=O)c3cnc4cc(CCC(C)=O)ccn34)c2)no1 [F177] | 240 nM
Cc1ccc(-c2noc(C(C)C)n2)cc1NC(=O)c1cnc2ccccn12 [F189] | 122 nM
Cc1ccc(-c2noc(CCC(C)(C)O)n2)cc1NC(=O)c1cnc2ccc(CCN3CCOCC3)cn12 [F184] | 158 nM
COCc1n[nH]c(-c2ccc3ncc(C(=O)Nc4cc(-c5noc(CCC(C)(C)O)n5)ccc4C)n3c2)n1 [F214] | 805 nM
CC(=O)OCc1nc(-c2ccc(C)c(NC(=O)c3cnc4ccccn34)c2)no1 [F172] | 156 nM
